Results reported in the supplement of paper PMC11061612.

What was measured:
Test in all cases: Bliss excess, mean over the matrix (fraction); higher = more synergy
[1] = tested on: HuH-7 (Hepatocellular Carcinoma)
Summary of the method: (§1)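 Bliss excess equals the observed combination effect minus the expected value EA + EB − EA·EB, where EA and EB are the effects of each agent alone. Combination Emax is the second-highest inhibition within the matrix. Inhibition was scaled from CellTiter-Glo 2.0 luminescence, with 0 set by vehicle wells and 1 by blank wells, after 72 hours of two-drug dosing of cells plated in 1536-well plates.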

[2] = tested on: OE21 (Esophageal Squamous Cell Carcinoma)
Summary of the method: as §1

[3] = tested on: BE-13 (T-Lymphoblastic Leukemia)
Summary of the method: as §1

[4] = tested on: HeLa (Cervical Carcinoma)
Summary of the method: as §1

NCI-H2722 (Mesothelioma) = tested on: NCI-H2722 (Mesothelioma)
Summary of the method: as §1

KS-1 (Glioblastoma) = tested on: KS-1 (Glioblastoma)
Summary of the method: as §1

[5] = tested on: NCI-H524 (Small Cell Lung Carcinoma)
Summary of the method: as §1

BE2-M17 (Neuroblastoma) = tested on: BE2-M17 (Neuroblastoma)
Summary of the method: as §1

EW-11 (Ewing's Sarcoma) = tested on: EW-11 (Ewing's Sarcoma)
Summary of the method: as §1

[6] = tested on: NCI-H209 (Small Cell Lung Carcinoma)
Summary of the method: as §1

CAL-72 (Osteosarcoma) = tested on: CAL-72 (Osteosarcoma)
Summary of the method: as §1

[7] = tested on: SNU-16 (Gastric Carcinoma)
Summary of the method: as §1

[8] = tested on: CAL-33 (Oral Cavity Carcinoma)
Summary of the method: as §1

[9] = tested on: TGBC1TKB (Biliary Tract Carcinoma)
Summary of the method: as §1

[10] = tested on: MHH-CALL-2 (B-Lymphoblastic Leukemia)
Summary of the method: as §1

[11] = tested on: LS-123 (Colorectal Carcinoma)
Summary of the method: as §1

GAMG (Glioblastoma) = tested on: GAMG (Glioblastoma)
Summary of the method: as §1

[12] = tested on: SNU-449 (Hepatocellular Carcinoma)
Summary of the method: as §1

[13] = tested on: NCI-H1568 (Lung Adenocarcinoma)
Summary of the method: as §1

[14] = tested on: L-428 (Hodgkin's Lymphoma)
Summary of the method: as §1

| SMILES | Bliss excess [1] | Bliss excess [2] | Bliss excess [3] | Bliss excess [4] | Bliss excess (NCI-H2722 (Mesothelioma)) | Bliss excess (KS-1 (Glioblastoma)) | Bliss excess [5] | Bliss excess (BE2-M17 (Neuroblastoma)) | Bliss excess (EW-11 (Ewing's Sarcoma)) | Bliss excess [6] | Bliss excess (CAL-72 (Osteosarcoma)) | Bliss excess [7] | Bliss excess [8] | Bliss excess [9] | Bliss excess [10] | Bliss excess [11] | Bliss excess (GAMG (Glioblastoma)) | Bliss excess [12] | Bliss excess [13] | Bliss excess [14] |
| --- | --- | --- | --- | --- | --- | --- | --- | --- | --- | --- | --- | --- | --- | --- | --- | --- | --- | --- | --- | --- |
| NC1(C(=O)N[C@@H](CCO)c2ccc(Cl)cc2)CCN(c2ncnc3[nH]ccc23)CC1 [Capivasertib] + CCN(CCO)CCCOc1ccc2c(Nc3cc(CC(=O)Nc4cccc(F)c4)[nH]n3)ncnc2c1 [AZD2811] (first compound max 10 µM, 7x7, partner max 1 µM) | -0.0168 | 0.0098 | -0.0125 | -0.0411 | -0.0044 | 0.0374 | 0.0113 | -0.043 | 0.0737 | -0.0383 | 0.002 | 0.0416 | -0.0564 | -0.0275 | -0.0244 | -0.0179 | -0.0737 | -0.0166 | -0.0235 | 0.0098 |
| CC(=O)c1c(C)c2cnc(Nc3ccc(N4CCNCC4)cn3)nc2n(C2CCCC2)c1=O [Palbociclib] + CC1(C)CCC(CN2CCN(c3ccc(C(=O)NS(=O)(=O)c4ccc(NCC5CCOCC5)c([N+](=O)[O-])c4)c(Oc4cnc5[nH]ccc5c4)c3)CC2)=C(c2ccc(Cl)cc2)C1 [Venetoclax] (first compound max 10 µM, 7x7, partner max 1 µM) | -0.0402 | 0.0309 | -0.0182 | -0.0473 | -0.0485 | -0.0211 | -0.0732 | 0.0218 | -0.0083 | 0.0824 | -0.0439 | -0.0161 | -0.022 | -0.0385 | -0.032 | -0.0324 | -0.0097 | -0.0153 | -0.0506 | 0.0037 |
| COc1nnc2ccc(N3CCC(c4ccc(OCCN5CCN(C)C(=O)[C@H]5C)cc4)CC3)nn12 [AZD5153] + Cc1c2c(nn1C)CSCc1cc(n(C)n1)CSc1cc(c3ccccc3c1)OCCCc1c(C(=O)O)n(C)c3c-2c(Cl)ccc13 [AZD5991] (first compound max 1 µM, 7x7, partner max 1 µM) | 0.0546 | -0.0089 | 0.0075 | 0.0151 | -0.016 | -0.0479 | 0.0723 | 0.0101 | 0.111 | 0.0546 | 0.0287 | 0.0403 | 0.0009 | 0.0069 | 0.002 | -0.0249 | -0.0043 | -0.0368 | -0.0309 | -0.023 |
| Cc1c2c(nn1C)CSCc1cc(n(C)n1)CSc1cc(c3ccccc3c1)OCCCc1c(C(=O)O)n(C)c3c-2c(Cl)ccc13 [AZD5991] + Cn1cnc2c(F)c(Nc3ccc(Br)cc3Cl)c(C(=O)NOCCO)cc21 [Selumetinib] (first compound max 1 µM, 7x7, partner max 3 µM) | -0.0361 | 0.0286 | 0.0415 | -0.004 | 0.0081 | -0.0456 | -0.0129 | 0.0436 | -0.0106 | -0.0778 | 0.0483 | 0.0143 | 0.0814 | -0.0181 | 0.111 | 0.0196 | 0.0368 | -0.0846 | 0.102 | 0.0018 |
| COc1nnc2ccc(N3CCC(c4ccc(OCCN5CCN(C)C(=O)[C@H]5C)cc4)CC3)nn12 [AZD5153] + CC1(C)CCC(CN2CCN(c3ccc(C(=O)NS(=O)(=O)c4ccc(NCC5CCOCC5)c([N+](=O)[O-])c4)c(Oc4cnc5[nH]ccc5c4)c3)CC2)=C(c2ccc(Cl)cc2)C1 [Venetoclax] (first compound max 1 µM, 7x7, partner max 1 µM) | -0.0987 | -0.0352 | -0.0428 | -0.0574 | -0.0485 | -0.0763 | -0.037 | 0.0308 | -0.117 | -0.008 | -0.0305 | -0.0522 | -0.0393 | 0.0071 | -0.0292 | 0.0205 | -0.01 | -0.0308 | -0.0383 | -0.082 |
| CC1(C)CCC(CN2CCN(c3ccc(C(=O)NS(=O)(=O)c4ccc(NCC5CCOCC5)c([N+](=O)[O-])c4)c(Oc4cnc5[nH]ccc5c4)c3)CC2)=C(c2ccc(Cl)cc2)C1 [Venetoclax] + Cn1cnc2c(F)c(Nc3ccc(Br)cc3Cl)c(C(=O)NOCCO)cc21 [Selumetinib] (first compound max 1 µM, 7x7, partner max 3 µM) | -0.055 | 0.0044 | -0.0418 | -0.0369 | -0.0741 | 0.0043 | -0.0392 | -0.0116 | -0.0583 | 0.0379 | -0.0593 | -0.0052 | -0.0292 | -0.0542 | 0.0653 | -0.0512 | -0.0576 | -0.0609 | -0.0681 | -0.0042 |
| Cn1cnc2c(F)c(Nc3ccc(Br)cc3Cl)c(C(=O)NOCCO)cc21 [Selumetinib] + C[C@@H]1COCCN1C2=NC(=NC(=C2)C3(CC3)[S@](=N)(=O)C)C4=C5C=CNC5=NC=C4 [AZD6738] (first compound max 10 µM, 7x7, partner max 10 µM) | -0.0221 | 0.0134 | -0.0181 | 0.0113 | -0.0455 | -0.0315 | -0.0293 | 0.0348 | -0.0605 | -0.0403 | -0.0387 | 0.0038 | 0.0115 | -0.0031 | 0.0085 | 0.0709 | -0.0398 | -0.0403 | -0.0261 | -0.0311 |
| CC1(C)CCC(CN2CCN(c3ccc(C(=O)NS(=O)(=O)c4ccc(NCC5CCOCC5)c([N+](=O)[O-])c4)c(Oc4cnc5[nH]ccc5c4)c3)CC2)=C(c2ccc(Cl)cc2)C1 [Venetoclax] + C=CCn1c(=O)c2cnc(Nc3ccc(N4CCN(C)CC4)cc3)nc2n1-c1cccc(C(C)(C)O)n1 [AZD1775] (first compound max 1 µM, partner max 1 µM) | -0.0247 | 0.0095 | 0.0227 | -0.0459 | -0.0631 | 0.0134 | 0.0089 | -0.0256 | 0.0341 | 0.107 | 0.0256 | -0.0478 | -0.0631 | -0.039 | -0.0382 | -0.0165 | 0.0112 | -0.0353 | -0.0385 | -0.0298 |
| NC1(C(=O)N[C@@H](CCO)c2ccc(Cl)cc2)CCN(c2ncnc3[nH]ccc23)CC1 [Capivasertib] + C[C@@H]1COCCN1C2=NC(=NC(=C2)C3(CC3)[S@](=N)(=O)C)C4=C5C=CNC5=NC=C4 [AZD6738] (first compound max 10 µM, 7x7, partner max 10 µM) | -0.0228 | -0.0499 | -0.0877 | -0.0926 | -0.0119 | -0.0366 | -0.0086 | -0.0034 | -0.011 | -0.0054 | -0.0202 | -0.0208 | -0.0246 | -0.005 | -0.0076 | 0.0058 | -0.0558 | -0.0057 | -0.0216 | -0.0004 |
| CS(=O)(=O)CCNCc1ccc(-c2ccc3ncnc(Nc4ccc(OCc5cccc(F)c5)c(Cl)c4)c3c2)o1 [Lapatinib] + C[C@@H](Oc1cc(-c2cnn(C3CCNCC3)c2)cnc1N)c1c(Cl)ccc(F)c1Cl [Crizotinib] (first compound max 10 µM, 7x7, partner max 10 µM) | 0.0309 | 0.0006 | -0.0235 | -0.0031 | -0.0713 | -0.0458 | -0.037 | -0.0652 | -0.0233 | -0.003 | -0.0926 | -0.0151 | -0.0247 | -0.0061 | 0.0219 | -0.0052 | -0.0277 | -0.0453 | -0.0174 | -0.0032 |
| Cc1c2c(nn1C)CSCc1cc(n(C)n1)CSc1cc(c3ccccc3c1)OCCCc1c(C(=O)O)n(C)c3c-2c(Cl)ccc13 [AZD5991] + C1CN(CCC1(C(=O)N[C@@H](CCO)C2=CC=C(C=C2)Cl)N)C3=NC=NC4=C3C=CN4 [Capivasertib] (first compound max 1 µM, 7x7, partner max 3 µM) | -0.0116 | 0.0577 | 0.0349 | 0.0059 | -0.0147 | -0.0181 | 0.014 | -0.0068 | -0.02 | 0.0273 | 0.005 | -0.0001 | 0.0067 | -0.0159 | 0.0182 | 0.0203 | -0.0239 | -0.0238 | -0.012 | -0.0007 |
| CC1(C)CCC(CN2CCN(c3ccc(C(=O)NS(=O)(=O)c4ccc(NCC5CCOCC5)c([N+](=O)[O-])c4)c(Oc4cnc5[nH]ccc5c4)c3)CC2)=C(c2ccc(Cl)cc2)C1 [Venetoclax] + COc1cc(Nc2ncc3c(n2)-c2ccc(Cl)cc2C(c2c(F)cccc2OC)=NC3)ccc1C(=O)O [Alisertib] (first compound max 1 µM, 7x7, partner max 10 µM) | -0.0508 | 0.0433 | -0.003 | 0.0517 | -0.0855 | 0.0145 | -0.0902 | 0.215 | 0.0369 | 0.318 | -0.049 | -0.052 | -0.0356 | -0.0367 | 0.165 | 0.0288 | -0.0024 | -0.0753 | -0.0418 | 0.0501 |
| CN(CCO)CC[C@H](CSc1ccccc1)Nc1ccc(S(=O)(=O)NC(=O)c2ccc(N3CCC([C@@H](O)c4ccccc4-c4ccc(Cl)cc4)CC3)cc2)cc1S(=O)(=O)C(F)(F)F [AZD4320] + Cn1cnc2c(F)c(Nc3ccc(Br)cc3Cl)c(C(=O)NOCCO)cc21 [Selumetinib] (first compound max 1 µM, 7x7, partner max 3 µM) | 0.0069 | 0.0225 | -0.0017 | -0.0092 | -0.011 | -0.0051 | -0.0061 | 0.0929 | -0.0786 | -0.0215 | -0.0089 | -0.0054 | 0.0749 | -0.012 | 0.298 | – | 0.0039 | -0.0537 | -0.0035 | 0.0143 |
| CN(C)CCCOc1ccc(-c2ccc3ncc4c(c3c2)n(C2CCOCC2)c(=O)n4C)cn1 [AZD0156] + O=C(c1cc(Cc2n[nH]c(=O)c3ccccc23)ccc1F)N1CCN(C(=O)C2CC2)CC1 [Olaparib] (first compound max 3 µM, partner max 3 µM) | -0.0107 | -0.0006 | 0.0894 | -0.0057 | -0.017 | 0.0259 | 0.179 | 0.0515 | 0.0995 | 0.163 | 0.0475 | – | 0.0741 | -0.0294 | 0.106 | -0.0346 | 0.0515 | -0.0344 | 0.0101 | -0.0116 |
